According to patent publication US6555692B1, “Preparation and use of bifunctional molecules having DNA sequence binding specificity” (California Institute of Technology, priority 1996, dated 2003):

Assays:
5′-AACCAAGTACTTGGTA-3′ = assay: Association constants, recognition of 16 base pairs; format: binding; conditions: for Specificity 5′-AACCAACTAGTTGGTA: Table 8, center mismatch; for Specificity 5′-AACCAAGTACTTGCGA: Table 8, edge mismatch; for Ka 5′-AACCAAGTACTTGGTA: Table 8, match site
From the text: Table 8 illustrates recognition of 16 Base-Pairs by ImPyPyPy-X-ImImPy-γ-PyPyPy-β-Dp.

5′-TGTCAGACA-3′ = assay: Recognition of 9-11 base pairs (Table 9); format: binding; conditions: 22° C. and pH 7.0
From the text: (§1) Table 9 illustrates recognition of recognition of 9-11 base pairs by ImPyPy-X-ImPyPy-β-Dp.

5′-gcggtTGTCAacccg-3′ = assay: Recognition of 9-11 base pairs (Table 9); format: binding; conditions: 22° C. and pH 7.0
From the text: as §1

5′-TGTCAAAGACA-3′ = assay: Recognition of 9-11 base pairs (Table 9); format: binding; conditions: 22° C. and pH 7.0
From the text: as §1

5′-TGTCAAGACA-3′ = assay: Recognition of 9-11 base pairs (Table 9); format: binding; conditions: 22° C. and pH 7.0
From the text: as §1

5′-TGTTA-3′ = conditions: cited from earlier work
5′-AGTACT-3′ = assay: Quantitative DNase I footprint titration, 229 bp restriction fragment; format: binding
Procedure: (§2) ImPyPyPy-γ-ImPyPyPy-β-Dp and ImPyPyPy-γ-PyPyPyPy-β-Dp were synthesized by solid phase methods and purified by reversed phase HPLC. Equilibrium association constants for match and mismatch six base pair binding sites on a 3′^32P-labeled 229 bp restricted fragment were determined by quantitative DNase I footprint titration experiments. […] The specificity of ImPyPyPy-γ-ImPyPyPy-β-Dp and ImPyPyPy-γ-PyPyPyPy-β-Dp for their respective match sites results from very small structural changes.

5′-AGTATT-3′ = assay: as above; format: binding
Procedure: as §2

[1] = tested on: 5 to 10 base pair sites based on a 5′-TGACA-3′ core sequence; assay: Footprint titration of three- to eight-ring polyamide dimers (Table 2); format: binding; conditions: 22° C., pH 7.0
From the text: To determine the effect of polyamide length on binding site size, binding affinity, and sequence specificity, a series of six polyamides containing three to eight rings was synthesized. (Kelly, et al. Proc. Natl. Acad. Sci. U.S.A. 93, 6981-6985 (1996).) The series is based on ImPyPy-Dp with pyrrolecarboxamide moieties added sequentially to the C-termini to afford ImPyPyPy-Dp, ImPyPyPyPy-Dp, ImPyPyPyPyPy-Dp, ImPyPyPyPyPyPy-Dp, and ImPyPyPyPyPyPyPy-Dp which are designed to bind 5 to 10 base pair sites, respectively as side-by-side antiparallel dimers. DNA binding sites are based on a 5′-TGACA-3′ core sequence and contain sequential A,T inserts in the center of the binding site that will be recognized by the additional pyrrole carboxamides.

Row | Compound | 5′-TGTCAGACA-3′ (5′-TGTCAGACA-3′) | 5′-gcggtTGTCAacccg-3′ (5′-gcggtTGTCAacccg-3′) | 5′-TGTCAAAGACA-3′ (5′-TGTCAAAGACA-3′) | 5′-TGTCAAGACA-3′ (5′-TGTCAAGACA-3′) | further results
1 | CN(C)CCCNC(=O)CCNC(=O)c1cc(NC(=O)c2cc(NC(=O)c3cc(NC(=O)CCCNC(=O)c4cc(NC(=O)c5nc(NC(=O)c6nc(NC(=O)CCCCNC(=O)c7cc(NC(=O)c8cc(NC(=O)c9cc(NC(=O)c%10nccn%10C)cn9C)cn8C)cn7C)cn6C)cn5C)cn4C)cn3C)cn2C)cn1C [ImPyPyPy-C5-ImImPy-γ-PyPyPy-β-Dp] | – | – | – | – | Specificity 5′-AACCAACTAGTTGGTA (5′-AACCAAGTACTTGGTA-3′): >3; Specificity 5′-AACCAAGTACTTGCGA (5′-AACCAAGTACTTGGTA-3′): >3; Ka 5′-AACCAAGTACTTGGTA (5′-AACCAAGTACTTGGTA-3′): 7 × 10^8
2 | CN(C)CCCNC(=O)CCNC(=O)c1cc(NC(=O)c2cc(NC(=O)c3nc(NC(=O)CCNC(=O)CCNC(=O)c4cc(NC(=O)c5cc(NC(=O)c6nccn6C)cn5C)cn4C)cn3C)cn2C)cn1C [ImPyPy-β-β-ImPyPy-β-Dp] | 1 × 10^7 | 2 × 10^7 | 1 × 10^7 | 5 × 10^7 | –
3 | CN(C)CCCNC(=O)CCNC(=O)c1cc(NC(=O)c2cc(NC(=O)c3nc(NC(=O)CCCCCCCCCCNC(=O)c4cc(NC(=O)c5cc(NC(=O)c6nccn6C)cn5C)cn4C)cn3C)cn2C)cn1C [ImPyPy-C11-ImPyPy-β-Dp] | 5 × 10^6 | 1 × 10^7 | 2 × 10^7 | 2 × 10^7 | –
4 | ImPyPy-γ-PyPyPy-Dp | – | – | – | – | sequence-specificity versus single base pair mismatch sites (5′-TGTTA-3′): 30 fold
5 | CN(C)CCCNC(=O)CCNC(=O)c1cc(NC(=O)c2cc(NC(=O)c3nc(NC(=O)CCCCCCNC(=O)c4cc(NC(=O)c5cc(NC(=O)c6nccn6C)cn5C)cn4C)cn3C)cn2C)cn1C [ImPyPy-C7-ImPyPy-β-Dp] | 2 × 10^7 | 7 × 10^7 | 3 × 10^7 | 1 × 10^8 | –
6 | CN(C)CCCNC(=O)CCNC(=O)c1cc(NC(=O)c2cc(NC(=O)c3cc(NC(=O)c4nc(NC(=O)CCCNC(=O)c5cc(NC(=O)c6cc(NC(=O)c7cc(NC(=O)c8nccn8C)cn7C)cn6C)cn5C)cn4C)cn3C)cn2C)cn1C [ImPyPyPy-γ-ImPyPyPy-β-Dp] | – | – | – | – | free energy difference (5′-AGTACT-3′; N to C—H replacement, 5′-AGTACT-3′ complex): ~2.5 kcali/mole; Kd (5′-AGTACT-3′; match site 5′-AGTACT-3′, read-out: concentration at which the match site is bound): 0.03 nM; lower affinity for single base pair mismatch site (5′-AGTACT-3′; mismatch 5′-AGTATT-3′ vs match 5′-AGTACT-3′): ~100 fold; reduction of affinity of the polyamide•5′-AGTACT-3′ complex on replacing a single nitrogen atom with C—H (5′-AGTACT-3′; vs ImPyPyPy-γ-PyPyPyPy-β-Dp): ~75 fold
7 | CN(C)CCCNC(=O)CCNC(=O)c1cc(NC(=O)c2cc(NC(=O)c3nc(NC(=O)CCNC(=O)CCNC(=O)CCNC(=O)c4cc(NC(=O)c5cc(NC(=O)c6nccn6C)cn5C)cn4C)cn3C)cn2C)cn1C [ImPyPy-β-β-β-ImPyPy-β-Dp] | 1 × 10^7 | 1 × 10^7 | 7 × 10^7 | 1 × 10^7 | –
8 | CN(C)CCCNC(=O)CCNC(=O)c1cc(NC(=O)c2cc(NC(=O)c3nc(NC(=O)CCNC(=O)c4cc(NC(=O)CCNC(=O)c5cc(NC(=O)c6cc(NC(=O)c7nccn7C)cn6C)cn5C)cn4C)cn3C)cn2C)cn1C [ImPyPy-β-Py-β-ImPyPy-β-Dp] | 3 × 10^8 | – | 1 × 10^9 | 2 × 10^8 | Ka (5′-gcggtTGTCAacccg-3′): < 1e+08 M⁻¹
9 | CN(C)CCCNC(=O)CCNC(=O)c1cc(NC(=O)c2cc(NC(=O)c3cc(NC(=O)c4cc(NC(=O)CCCNC(=O)c5cc(NC(=O)c6cc(NC(=O)c7cc(NC(=O)c8nccn8C)cn7C)cn6C)cn5C)cn4C)cn3C)cn2C)cn1C [ImPyPyPy-γ-PyPyPyPy-β-Dp] | – | – | – | – | loss in binding energy (5′-AGTATT-3′; C—H to N replacement, 5′-AGTATT-3′ complex): ~1.3 kcal/mol; Kd (5′-AGTATT-3′; match site 5′-AGTATT-3′, read-out: concentration at which the match site is bound): 0.3 nM; lower affinity for single base pair mismatch site (5′-AGTATT-3′; mismatch 5′-AGTACT-3′ vs match 5′-AGTATT-3′): ~10 fold; reduction of affinity of the polyamide•5′-AGTATT-3′ complex on replacing a C—H with N (5′-AGTATT-3′; vs ImPyPyPy-γ-ImPyPyPy-β-Dp): ~10 fold
10 | CN(C)CCCNC(=O)CCNC(=O)c1cc(NC(=O)c2cc(NC(=O)c3nc(NC(=O)CNC(=O)c4cc(NC(=O)c5cc(NC(=O)c6nccn6C)cn5C)cn4C)cn3C)cn2C)cn1C [ImPyPy-G-ImPyPy-β-Dp] | 1 × 10^8 | 3 × 10^7 | 3 × 10^7 | 3 × 10^7 | –
11 | CN(C)CCCNC(=O)CCNC(=O)c1cc(NC(=O)c2cc(NC(=O)c3nc(NC(=O)CCNC(=O)c4cc(NC(=O)c5cc(NC(=O)c6nccn6C)cn5C)cn4C)cn3C)cn2C)cn1C [ImPyPy-β-ImPyPy-β-Dp] | 2 × 10^8 | 1 × 10^9 | 1 × 10^9 | 2 × 10^8 | –
12 | CN(C)CCCNC(=O)CCNC(=O)c1cc(NC(=O)c2cc(NC(=O)c3cc(NC(=O)CCNC(=O)c4cc(NC(=O)c5cc(NC(=O)c6nccn6C)cn5C)cn4C)cn3C)cn2C)cn1C [ImPyPy-β-PyPyPy-β-Dp] | 2 × 10^8 | 3 × 10^7 | 5 × 10^7 | 5 × 10^7 | –
13 | CN(C)CCCNC(=O)CCNC(=O)c1cc(NC(=O)c2cc(NC(=O)c3nc(NC(=O)CCCNC(=O)c4cc(NC(=O)c5cc(NC(=O)c6nccn6C)cn5C)cn4C)cn3C)cn2C)cn1C [ImPyPy-γ-ImPyPy-β-Dp] | 5 × 10^7 | 2 × 10^8 | 1 × 10^8 | 1 × 10^8 | –
14 | CN(C)CCCNC(=O)CCNC(=O)c1cc(NC(=O)c2cc(NC(=O)c3nc(NC(=O)CCCCNC(=O)c4cc(NC(=O)c5cc(NC(=O)c6nccn6C)cn5C)cn4C)cn3C)cn2C)cn1C [ImPyPy-C5-ImPyPy-β-Dp] | 2 × 10^8 | 1 × 10^9 | 1 × 10^9 | 1 × 10^9 | –
15 | CN(C)CCCNC(=O)CCNC(=O)c1cc(NC(=O)c2cc(NC(=O)c3cc(NC(=O)CCCNC(=O)c4cc(NC(=O)c5nc(NC(=O)c6nc(NC(=O)CCNC(=O)CCNC(=O)c7cc(NC(=O)c8cc(NC(=O)c9cc(NC(=O)c%10nccn%10C)cn9C)cn8C)cn7C)cn6C)cn5C)cn4C)cn3C)cn2C)cn1C [ImPyPyPy-β-β-ImImPy-γ-PyPyPy-β-Dp] | – | – | – | – | Specificity 5′-AACCAACTAGTTGGTA (5′-AACCAAGTACTTGGTA-3′): 1; Specificity 5′-AACCAAGTACTTGCGA (5′-AACCAAGTACTTGGTA-3′): 1; Ka 5′-AACCAAGTACTTGGTA (5′-AACCAAGTACTTGGTA-3′): 3 × 10^8
16 | CN(C)CCCNC(=O)CCNC(=O)c1cc(NC(=O)c2cc(NC(=O)c3cc(NC(=O)CCCNC(=O)c4cc(NC(=O)c5nc(NC(=O)c6nc(NC(=O)CCCCCNC(=O)c7cc(NC(=O)c8cc(NC(=O)c9cc(NC(=O)c%10nccn%10C)cn9C)cn8C)cn7C)cn6C)cn5C)cn4C)cn3C)cn2C)cn1C [ImPyPyPy-C6-ImImPy-γ-PyPyPy-β-Dp] | – | – | – | – | Specificity 5′-AACCAACTAGTTGGTA (5′-AACCAAGTACTTGGTA-3′): 1; Specificity 5′-AACCAAGTACTTGCGA (5′-AACCAAGTACTTGGTA-3′): 1; Ka 5′-AACCAAGTACTTGGTA (5′-AACCAAGTACTTGGTA-3′): 1 × 10^8
17 | CN(C)CCCNC(=O)CCNC(=O)c1cc(NC(=O)c2cc(NC(=O)c3nc(NC(=O)CCCCCCCNC(=O)c4cc(NC(=O)c5cc(NC(=O)c6nccn6C)cn5C)cn4C)cn3C)cn2C)cn1C [ImPyPy-C8-ImPyPy-β-Dp] | 1 × 10^7 | 1 × 10^7 | 1 × 10^7 | 3 × 10^7 | –
18 | cyclo-(ImPyPy-γ-PyPyPy-γ-) | – | – | – | – | equilibrium association constant Ka (5′-TGTTA-3′; 5′-TGTTA-3′ target site, prior art): 2.9e+09 M⁻¹; increase in Ka relative to the corresponding hairpin polyamide ImPyPy-γ-PyPyPy (5′-TGTTA-3′; 5′-TGTTA-3′): 40 fold; sequence-specificity versus single base pair mismatch sites (5′-TGTTA-3′): 2 fold
19 | CN(C)CCCNC(=O)CCNC(=O)c1cc(NC(=O)c2cc(NC(=O)c3nc(NC(=O)CCCCCNC(=O)c4cc(NC(=O)c5cc(NC(=O)c6nccn6C)cn5C)cn4C)cn3C)cn2C)cn1C [ImPyPy-C6-ImPyPy-β-Dp] | 1 × 10^8 | 5 × 10^7 | 5 × 10^7 | 2 × 10^8 | –
20 | CN(C)CCCNC(=O)c1cc(NC(=O)c2cc(NC(=O)c3cc(NC(=O)c4cc(NC(=O)c5cc(NC(=O)c6cc(NC(=O)c7nccn7C)cn6C)cn5C)cn4C)cn3C)cn2C)cn1C [ImPyPyPyPyPyPy-Dp] | – | – | – | – | specificity (ratio of match site affinity to affinity of the single base pair mismatch site) [1]: 2.8-fold; association constant ([1]; mean of at least three footprint titrations): 4.7e+07 M⁻¹
